Data from PubChem BioAssay (NCI).
Where “and” joins values, the source holds several entries; their conditions need not be identical. Identical values can stand only once.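 Where inhibition never reached the appropriate level, the endpoint shown equals the highest concentration tested. Otherwise, values were interpolated linearly from a five-concentration, 48-hour dose response in 96-well plates. GI50: concentration for 50% inhibition of growth. TGI: total growth inhibition.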

How the values were obtained:
Experiment in all cases: NCI tumour cell line growth inhibition, 48 h
MALME-3M melanoma = tested on: MALME-3M melanoma
PC-3 prostate = tested on: PC-3 prostate
COLO 205 colon = tested on: COLO 205 colon
SR leukemia = tested on: SR leukemia
MDA-N = tested on: MDA-N
U251 CNS = tested on: U251 CNS
A549 NSCLC = tested on: A549 NSCLC
T-47D breast = tested on: T-47D breast
OVCAR-5 ovarian = tested on: OVCAR-5 ovarian
M14 melanoma = tested on: M14 melanoma
SF-268 CNS = tested on: SF-268 CNS
SF-295 CNS = tested on: SF-295 CNS
HCC-2998 colon = tested on: HCC-2998 colon

SMILES | TGI (MALME-3M melanoma) [µM] | TGI (PC-3 prostate) [µM] | TGI (COLO 205 colon) [µM] | TGI (SR leukemia) [µM] | TGI (MDA-N) [µM] | TGI (U251 CNS) [µM] | TGI (A549 NSCLC) [µM] | TGI (T-47D breast) [µM] | GI50 (OVCAR-5 ovarian) [µM] | TGI (OVCAR-5 ovarian) [µM] | TGI (M14 melanoma) [µM] | GI50 (SF-268 CNS) | TGI (SF-268 CNS) [µM] | GI50 (SF-295 CNS) | TGI (SF-295 CNS) | TGI (HCC-2998 colon) [µM] | GI50 (T-47D breast) [µM]
COc1ccc(-c2nc(SC)n(C3OC(COC(C)=O)C(OC(C)=O)C(OC(C)=O)C3OC(C)=O)c(=O)c2C#N)cc1 (stereo not given) | > 100 | > 100 | > 100 | > 100 | > 100 | > 100 | > 100 | > 100 | > 100 | > 100 | > 100 | 21.8 µM and 76.4 µM | > 100 | 24.2 µM and > 100 µM | 65.6 µM and > 100 µM | > 100 | –
CC(C)(C)C(=O)CC(=O)C(F)(F)C(F)(F)C(F)(F)F.[Ag] | 45.4 | 26.8 | 57.9 | 22.4 | 29 | 52.8 | > 100 | 55.2 | – | > 100 | 31.1 | – | 40.3 | – | 39.2 µM | – | –
CN(C)c1c(C2CC(O)C(CO)O2)c(=O)c1=O (stereo not given) | – | > 100 | – | > 100 | > 100 | > 100 | > 100 | > 100 | – | > 100 | > 100 | – | > 100 | – | > 100 µM | > 100 | –
N#CC1=C(S)N(C2OC(CO)C(O)C(O)C2O)C(c2ccccc2)=CC1c1cccs1 (stereo not given) | 38.7 | 30.8 | 38.6 | > 100 | 30.9 | 51.4 | 45.6 | 65.7 | – | > 100 | > 100 | – | 63.8 | – | 34.8 µM | 44.8 | –
Nc1nc(Cc2ccccc2)nc(Cc2ccccc2)c1-c1ccccc1 | 50.2 | 77.7 | – | 48.5 | 38.8 | 37.1 | > 100 | > 100 | – | > 100 | > 100 | – | 85.9 | – | > 100 µM | > 100 | –
CC1(C)/C(=N\Nc2ccc([N+](=O)[O-])cc2[N+](=O)[O-])C2CCC1C2 (stereo not given) | > 100 | > 100 | > 100 | > 100 | > 100 | > 100 | > 100 | > 100 | – | > 100 | > 100 | – | > 100 | – | 71.5 µM | – | –
CCN(CCCl)c1cc(CN(C)C)cc(NC(=O)c2ccc(C(=O)Nc3ccccc3)cc2)c1 | 0.425 | 1.56 | 2.27 | 1.16 | 0.925 | – | 11.9 | 9.91 | – | 4.5 | 5.44 | – | 13.6 | – | 12.4 µM | 2.51 | –
COc1cc(C(=O)N(C(=S)OC23CC4CC(CC(C4)C2)C3)c2ccccc2)cc(OC)c1OC | 82.1 | > 100 | 39 | – | 85.8 | 53 | > 100 | > 100 | – | > 100 | 39.7 | – | > 100 | – | > 100 µM | 61.4 | –
CCSc1nc(C)nc2c1sc1nc3ccccc3n12 | – | > 100 | > 100 | > 100 | > 100 | > 100 | > 100 | > 100 | – | > 100 | > 100 | – | > 100 | – | > 100 µM | > 100 | –
COc1ccc2c(c1)OC1c3ccccc3OCC21 (stereo not given) | – | > 100 | > 100 | – | > 100 | > 100 | – | > 100 | – | > 100 | > 100 | – | > 100 | – | > 100 µM | > 100 | –
O=C(c1cccc2cc(O)ccc12)c1cn(CCN2CCOCC2)c2ccccc12 | 56.3 | 35.5 | 78.8 | > 100 | 58.3 | – | – | > 100 | – | 73.5 | 36.9 | – | > 100 | – | – | – | –
C=CC(C)(C)n1cc(C2=C(O)C(=O)C(c3c(CC=C(C)C)[nH]c4ccccc34)=C(O)C2=O)c2ccccc21 | 3.9 | 4.78 | 3.23 | – | 4.08 | 3.33 | 7.85 | 7.59 | – | 10.1 | 4.24 | – | 5.13 | – | 4.1 µM | 2.33 | –
CC1=CC(=O)/C(=C/N2C(=O)CNC2=S)C(=O)O1 | – | > 100 | > 100 | – | > 100 | > 100 | > 100 | > 100 | – | > 100 | > 100 | – | – | – | > 100 µM | > 100 | –
COc1cc(OC2OC(CO)C(O)C(O)C2O)c2c(c1)O[C@@H]1[C@H](O)Oc3cc(OC)c(OC)cc3[C@]1(O)C2=O (stereo not given in full) | – | > 25 | > 25 | > 25 | > 25 | > 25 | > 25 | > 25 | – | > 25 | > 25 | – | > 25 | – | > 25 µM | > 25 | –
Cc1c(C#N)c(N)n(C2OC(CO)C(O)C(O)C2O)c(=S)c1C#N (stereo not given) | > 100 | > 100 | – | > 100 | > 100 | > 100 | > 100 | > 100 | – | > 100 | > 100 | – | > 100 | – | > 100 µM | > 100 | > 100
C(/C=C/Nc1ccc(-c2ccccc2)cc1)=Nc1ccc(-c2ccccc2)cc1 | – | > 100 | > 100 | > 100 | > 100 | > 100 | > 100 | > 100 | – | > 100 | > 100 | – | > 100 | – | > 100 µM | – | –
CCOc1cc(/C=C2\N=C(c3ccccc3)N(c3nc4ccccc4s3)C2=O)ccc1O | – | 79.4 | – | > 100 | > 100 | > 100 | – | > 100 | – | > 100 | > 100 | – | > 100 | – | > 100 µM | 97.3 | –
O=C(NNC(=O)c1c(Cl)c(Cl)c(Cl)c(Cl)c1-c1nc2ccccc2[nH]1)c1ccc(Cl)cc1 | > 100 | > 100 | > 100 | > 100 | 53.4 | – | > 100 | 93.5 | – | > 100 | > 100 | – | > 100 | – | > 100 µM | – | –
